These results are taken from US20260083865A1, “PROSTATE SPECIFIC MEMBRANE ANTIGEN (PSMA) LIGANDS AND USE THEREOF” (priority 2022, published 2026).

SMILES strings stand for the structures. Where two headings read alike, the source gives them in different places. Numbered stars: 1 amine (or outer) side, 2 acyl side, 3 side chain; on linkers, the order of the positions; unused ones are H or OH. Bridge positions count the residues as written; N and C are the ends. Square brackets hold non-standard residues; d marks the D form. Peptide text beside a SMILES is read from it. * marks the point of attachment. TtdsdLys(DOTA)NH2 = NC(=O)[C@@H](CCCCNC(=O)CN1CCN(CC(=O)O)CCN(CC(=O)O)CCN(CC(=O)O)CC1)NC(=O)CCC(=O)NCCCOCCOCCOCCCN*; DOTA = O=C(O)CN1CCN(CC(=O)O)CCN(CC(=O)*)CCN(CC(=O)O)CC1; Phe(4-Cl) = N[C@@H](Cc1ccc(Cl)cc1)C(=O)O; Arg(Me) = CNC(=N)NCCC[C@H](N)C(=O)O; Ethylenediamine = C(CN[*:2])N[*:1]; X1 = O=C(CC1CCN([*:1])CC1)[*:2]; Aad = N[C@@H](CCCC(=O)O)C(=O)O; Lys(Me) = CNCCCC[C@H](N)C(=O)O; Tle = CC(C)(C)[C@H](N)C(=O)O; Hexanoyl = CCCCCC(=O)*; Aib = CC(C)(N)C(=O)O; βAla = NCCC(=O)O

Data set [1] has as its target T1, PSMA-expressing C4-2 cells (Homo sapiens, UniProt Q04609).
T1 construct: PSMA-expressing C4-2 cells (ATCC, Cat. No. CRL-3314) were cultured in RPMI-1640; host or cells: C4-2 cells
In words: FACS binding assay (competition with 50 nM PSM-0183). Conditions: C4-2 cells, read-out: pIC50 [C4-2] CAT (converted). In a few lines: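 Competition format: fluorescent tracer PSM-0183 (50 nM) displaced from PSMA on C4-2 cells by a test compound titration over 1 h at 4 °C. Bound tracer was quantified as flow-cytometric AF488 median fluorescence after washing. Four-parameter logistic fits of MFI data gave IC50 and pIC50.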

Data set [2] has as its system PC3-PIP tumor model. Details: species or system mice. As to conditions: mouse, in vivo. The source says: Radioactively labeled compounds can be detected by imaging methods such as SPECT and PET. Furthermore, the data acquired by such techniques can be confirmed by direct measurement of radioactivity contained in the individual organs prepared from an animal injected with a radioactively labeled compound of the disclosure. Thus, the biodistribution (the measurement of radioactivity in individual organs) of a radioactively labeled compound can be determined and analyzed. […] All animal experiments were conducted in compliance with the German animal protection laws. Male swiss or NMRI nude mice (6-8 weeks old, Janvier Labs, France) were inoculated with 5×10^6 PC3-PIP cells in the right shoulder. For selected compounds an additional model was used, here male NMRI nude mice (6-8 weeks old, Janvier Labs, France) were inoculated with 5×10^6 or/1×10^7 C4-2 cells in the right shoulder. When tumors reached an appropriate size, the mice received ˜30 MBq ^111In-labeled compounds of the disclosure (diluted to 100 μL with PBS) administered intravenously via the tail vein. Images were obtained on a NanoSPECT/computed tomography system (Mediso Medical Imaging Systems, Budapest, Hungary) using exemplarily the following acquisition and reconstruction parameters (Table 10). [table] Imaging data were saved as DICOM files and analysed using VivoQuant™ software (Invicro, Boston, USA). In brief, regions of interest (ROIs) were drawn based on computed tomography images for the relevant organs and tissue regions such as heart (estimate of blood pool, bps), kidney, and tumor. The resulting numeric data expressed as a percentage of injected dose per gram of tissue (% ID/g) are presented in FIGS. 3(a)-3(ii) for the PC3-PIP model and FIGS. 4(a)-4(r) for the C4-2 model. Bars show mean % ID/g values of two to three animals per time point. Error bars indicate the value range (minimum and maximum values).

Data set [3] concerns the target T2, Fc-fusion protein of human PSMA (hPSMA-Fc) (Homo sapiens, UniProt Q04609).
T2 construct: purchased Acro Biosystems PSA-H5264
The data set is described as follows: Surface plasmon resonance assay (Biacore T200, single cycle kinetic). It is filed as binding. Conditions: read-out: pKD CAT (converted). The method, boiled down: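 KD, expressed as pKD, came from 1:1 Langmuir fits of reference- and buffer-blank-subtracted SPR data. The runs were single-cycle kinetics at 25° C in HBST/0.1% DMSO over human PSMA-Fc, captured to ~1000 RU on a peptide-coated CM5 surface and regenerated with 10 mM glycine pH 1.5.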
(Surface plasmon resonance follows binding to a sensor surface in real time, without labels.)

[4] abbreviates: pKD category for PSMA SPR activity assay, hPSMA-Fc, 25° C.

T2 sequence (Q04609 44-750 limits assumed): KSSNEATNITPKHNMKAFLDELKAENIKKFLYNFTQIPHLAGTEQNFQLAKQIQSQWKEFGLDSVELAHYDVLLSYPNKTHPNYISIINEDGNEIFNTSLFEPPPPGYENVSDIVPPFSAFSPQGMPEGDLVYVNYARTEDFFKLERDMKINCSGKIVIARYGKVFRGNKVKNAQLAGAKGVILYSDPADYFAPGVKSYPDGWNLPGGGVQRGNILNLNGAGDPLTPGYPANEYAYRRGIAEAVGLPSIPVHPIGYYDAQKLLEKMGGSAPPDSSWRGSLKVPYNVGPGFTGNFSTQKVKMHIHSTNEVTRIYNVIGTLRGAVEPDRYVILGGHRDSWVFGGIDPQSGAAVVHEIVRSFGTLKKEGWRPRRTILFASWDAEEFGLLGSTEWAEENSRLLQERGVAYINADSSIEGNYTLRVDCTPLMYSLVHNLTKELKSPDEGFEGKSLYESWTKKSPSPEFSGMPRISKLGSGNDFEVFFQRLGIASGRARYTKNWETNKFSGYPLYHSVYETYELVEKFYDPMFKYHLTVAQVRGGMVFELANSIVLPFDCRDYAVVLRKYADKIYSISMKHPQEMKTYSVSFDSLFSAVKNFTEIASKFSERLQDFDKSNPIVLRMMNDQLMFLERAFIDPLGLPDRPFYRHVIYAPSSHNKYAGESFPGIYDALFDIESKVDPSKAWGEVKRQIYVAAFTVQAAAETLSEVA
T1 sequence (Q04609 whole entry): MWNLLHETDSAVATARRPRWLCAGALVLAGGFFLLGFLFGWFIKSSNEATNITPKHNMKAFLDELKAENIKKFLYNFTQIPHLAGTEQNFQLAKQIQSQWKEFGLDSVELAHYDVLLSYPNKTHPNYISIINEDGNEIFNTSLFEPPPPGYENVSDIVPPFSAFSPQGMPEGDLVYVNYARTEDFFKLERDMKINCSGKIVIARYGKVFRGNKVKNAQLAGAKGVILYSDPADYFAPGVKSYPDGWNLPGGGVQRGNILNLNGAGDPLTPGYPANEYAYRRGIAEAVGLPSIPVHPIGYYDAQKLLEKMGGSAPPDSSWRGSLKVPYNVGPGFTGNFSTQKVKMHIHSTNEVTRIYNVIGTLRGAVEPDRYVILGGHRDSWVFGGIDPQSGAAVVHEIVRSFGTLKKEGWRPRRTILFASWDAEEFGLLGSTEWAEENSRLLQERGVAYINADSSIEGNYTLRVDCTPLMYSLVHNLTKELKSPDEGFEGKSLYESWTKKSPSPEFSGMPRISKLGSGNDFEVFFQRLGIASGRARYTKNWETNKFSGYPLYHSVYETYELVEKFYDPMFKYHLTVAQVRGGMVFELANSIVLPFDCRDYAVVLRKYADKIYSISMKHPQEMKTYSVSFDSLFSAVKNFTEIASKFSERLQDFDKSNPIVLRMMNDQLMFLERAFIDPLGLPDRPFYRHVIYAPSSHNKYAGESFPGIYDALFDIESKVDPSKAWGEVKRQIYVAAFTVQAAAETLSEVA

Regarding `CCCCCC(=O)N[C@H](C(=O)NC(C)(C)C(=O)N[C@@H](Cc1ccccc1)C(=O)N[C@H]1CSSC[C@@H](C(=O)N[C@H](C(=O)N[C@H](C(=O)N[C@@H](CC(=O)O)C(=O)NCCCOCCOCCOCCCNC(=O)CCC(=O)N[C@H](CCCCNC(=O)CN2CCN(CC(=O)O)CCN(CC(=O)O)CCN(CC(=O)O)CC2)C(N)=O)[C@@H](C)O)C(C)(C)C)NC(=O)[C@H](CC(N)=O)NC(=O)C(C)(C)NC(=O)[C@H](CCCNC(=N)N)NC(=O)[C@H](CCCCN)NC1=O)[C@@H](C)O` [PSM-0425, Hex-Thr-Aib-Phe-[Cys-Lys-Arg-Aib-Asn-Cys]-Tle-Thr-Asp-Ttds-lys(DOTA)-NH2] (Hexanoyl-T[Aib]FCKR[Aib]NC[Tle]TD-{TtdsdLys(DOTA)NH2}; disulfide 4-9), the IC50 in data set [1] (pIC50 category of FACS binding) was less than 200 nM. In data set [2], the “AUC ratio [T/K]” value is on record as 0.53 and the “Tumor AUC” value was 230 % ID/g*h. Also, the Kd in data set [3] (setting [4]) is less than 12.6 nM.
In the same order, the values of `CC(=O)N[C@H](C(=O)NC(C)(C)C(=O)N[C@@H](Cc1ccccc1)C(=O)N[C@H]1CSSC[C@@H](C(=O)N[C@H](C(=O)N[C@H](C(=O)N2CCC(CC(=O)N[C@H](CCCCNC(=O)CN3CCN(CC(=O)O)CCN(CC(=O)O)CCN(CC(=O)O)CC3)C(N)=O)CC2)[C@@H](C)O)C(C)(C)C)NC(=O)[C@H](CC(N)=O)NC(=O)C(C)(C)NC(=O)[C@H](CCCNC(=N)N)NC(=O)[C@H](CCCCN)NC1=O)[C@@H](C)O` [PSM-0428, Ac-Thr-Aib-Phe-[Cys-Lys-Arg-Aib-Asn-Cys]-Tle-Thr-Cmp-lys(DOTA)-NH2] (Ac-T[Aib]FCKR[Aib]NC[Tle]T[X1][dK](DOTA)-NH2; disulfide 4-9) are less than 200 nM, 1.2, 170 % ID/g*h and less than 12.6 nM.
Taken in the same sequence, the figures for `C[C@@H](O)[C@H](NC(=O)CC1CCN(C(=O)CN2CCN(CC(=O)O)CCN(CC(=O)O)CCN(CC(=O)O)CC2)CC1)C(=O)NC(C)(C)C(=O)N[C@@H](Cc1ccc(Cl)cc1)C(=O)N[C@H]1CSSC[C@@H](C(=O)N[C@H](C(N)=O)C(C)(C)C)NC(=O)[C@H](CC(N)=O)NC(=O)C(C)(C)NC(=O)[C@H](CCCNC(=N)N)NC(=O)[C@H](CCCCN)NC1=O` [PSM-0433, DOTA-Cmp-Thr-Aib-Pcf-[Cys-Lys-Arg-Aib-Asn-Cys]-Tle-NH2] ({DOTA}-[X1]T[Aib][Phe(4-Cl)]CKR[Aib]NC[Tle]-NH2; disulfide 5-10) were less than 200 nM, 1.7, 270 % ID/g*h and less than 12.6 nM.
In the same order, the values of `C[C@@H](O)[C@H](NC(=O)CC1CCN(C(=O)CN2CCN(CC(=O)O)CCN(CC(=O)O)CCN(CC(=O)O)CC2)CC1)C(=O)NC(C)(C)C(=O)N[C@@H](Cc1ccccc1)C(=O)N[C@H]1CSSC[C@@H](C(=O)N[C@H](C(=O)NCCC(N)=O)C(C)(C)C)NC(=O)[C@H](CC(N)=O)NC(=O)C(C)(C)NC(=O)[C@H](CCCNC(=N)N)NC(=O)[C@H](CCCCN)NC1=O` [PSM-0449, DOTA-Cmp-Thr-Aib-Pho-[Cys-Lys-Arg-Aib-Asn-Cys]-Tle-Bal-NH2] ({DOTA}-[X1]T[Aib]FCKR[Aib]NC[Tle][βAla]-NH2; disulfide 5-10) are less than 200 nM, 1.4, 220 % ID/g*h and less than 12.6 nM.
`C[C@@H](O)[C@H](NC(=O)CC1CCN(C(=O)CN2CCN(CC(=O)O)CCN(CC(=O)O)CCN(CC(=O)O)CC2)CC1)C(=O)NC(C)(C)C(=O)N[C@@H](Cc1ccc(Cl)cc1)C(=O)N[C@H]1CSSC[C@@H](C(=O)N[C@H](C(=O)NCCC(N)=O)C(C)(C)C)NC(=O)[C@H](CC(N)=O)NC(=O)C(C)(C)NC(=O)[C@H](CCCNC(=N)N)NC(=O)[C@H](CCCCN)NC1=O` [PSM-0467, DOTA-Cmp-Thr-Aib-Pcf-[Cys-Lys-Arg-Aib-Asn-Cys]-Tle-Bal-NH2] ({DOTA}-[X1]T[Aib][Phe(4-Cl)]CKR[Aib]NC[Tle][βAla]-NH2; disulfide 5-10): in data set [1] (pIC50 category of FACS binding), the IC50 is less than 200 nM. Moreover, in data set [2], the “AUC ratio [T/K]” value was 1.3 and the “Tumor AUC” value came out at 280 % ID/g*h. Also, in data set [3] (setting [4]), the Kd was less than 12.6 nM.
In the same order, the values of `CNCCCC[C@@H]1NC(=O)[C@@H](NC(=O)[C@H](Cc2ccc(Cl)cc2)NC(=O)C(C)(C)NC(C)=O)CSSC[C@@H](C(=O)N[C@H](C(=O)NCCNC(=O)CN2CCN(CC(=O)O)CCN(CC(=O)O)CCN(CC(=O)O)CC2)C(C)(C)C)NC(=O)[C@H](CC(N)=O)NC(=O)C(C)(C)NC(=O)[C@H](CCCNC(=N)NC)NC1=O` [PSM-0481, Ac-Aib-Pcf-[Cys-Lys(Me)-Arg(Me)-Aib-Asn-Cys]-Tle-en-DOTA] (Ac-[Aib][Phe(4-Cl)]C[Lys(Me)][Arg(Me)][Aib]NC[Tle]-{Ethylenediamine-DOTA}; disulfide 3-8) are less than 200 nM, 2.6, 130 % ID/g*h and less than 12.6 nM.
Taken in the same sequence, the figures for `C[C@@H](O)[C@H](NC(=O)[C@@H](NC(=O)[C@@H]1CSSC[C@H](NC(=O)[C@H](Cc2ccccc2)NC(=O)C(C)(C)NC(=O)[C@@H](NC(=O)CC2CCN(C(=O)CN3CCN(CC(=O)O)CCN(CC(=O)O)CCN(CC(=O)O)CC3)CC2)[C@@H](C)O)C(=O)N[C@@H](CCCCN)C(=O)N[C@@H](CCCNC(=N)N)C(=O)NC(C)(C)C(=O)N[C@@H](CC(N)=O)C(=O)N1)C(C)(C)C)C(N)=O` [PSM-0492, DOTA-Cmp-Thr-Aib-Phe-[Cys-Lys-Arg-Aib-Asn-Cys]-Tle-Thr-NH2] ({DOTA}-[X1]T[Aib]FCKR[Aib]NC[Tle]T-NH2; disulfide 5-10) were less than 200 nM, 2.1, 180 % ID/g*h and less than 12.6 nM.
Taken in the same sequence, the figures for `C[C@@H](O)[C@H](NC(=O)[C@@H](NC(=O)[C@@H]1CSSC[C@H](NC(=O)[C@H](Cc2ccc(Cl)cc2)NC(=O)C(C)(C)NC(=O)[C@@H](NC(=O)CC2CCN(C(=O)CN3CCN(CC(=O)O)CCN(CC(=O)O)CCN(CC(=O)O)CC3)CC2)[C@@H](C)O)C(=O)N[C@@H](CCCCN)C(=O)N[C@@H](CCCC(N)=O)C(=O)NC(C)(C)C(=O)N[C@@H](CC(N)=O)C(=O)N1)C(C)(C)C)C(N)=O` [PSM-0531, DOTA-Cmp-Thr-Aib-Pcf-[Cys-Lys-Hgn-Aib-Asn-Cys]-Tle-Thr-NH2] ({DOTA}-[X1]T[Aib][Phe(4-Cl)]CK[Aad](NH2)[Aib]NC[Tle]T-NH2; disulfide 5-10) were less than 200 nM, 1.6, 120 % ID/g*h and less than 12.6 nM.
Take `C[C@@H](O)[C@H](NC(=O)CN1CCN(CC(=O)O)CCN(CC(=O)O)CCN(CC(=O)O)CC1)C(=O)NC(C)(C)C(=O)N[C@@H](Cc1ccc(Cl)cc1)C(=O)N[C@H]1CSSC[C@@H](C(=O)N[C@H](C(N)=O)C(C)(C)C)NC(=O)[C@H](CC(N)=O)NC(=O)C(C)(C)NC(=O)[C@H](CCCNC(=N)N)NC(=O)[C@H](CCCCN)NC1=O` [PSM-0534, DOTA-Thr-Aib-Pcf-[Cys-Lys-Arg-Aib-Asn-Cys]-Tle-NH2] ({DOTA}-T[Aib][Phe(4-Cl)]CKR[Aib]NC[Tle]-NH2; disulfide 4-9): the IC50 in data set [1] (pIC50 category of FACS binding) is less than 200 nM. Besides, in data set [2], the “AUC ratio [T/K]” value was found to be 1.1 and the “Tumor AUC” value was 220 % ID/g*h. Moreover, the Kd in data set [3] (setting [4]) was less than 12.6 nM.
For the compound `C[C@@H](O)[C@H](NC(=O)[C@@H](NC(=O)[C@@H]1CSSC[C@H](NC(=O)[C@H](Cc2ccc(Cl)cc2)NC(=O)C(C)(C)NC(=O)[C@@H](NC(=O)CN2CCN(CC(=O)O)CCN(CC(=O)O)CCN(CC(=O)O)CC2)[C@@H](C)O)C(=O)N[C@@H](CCCCN)C(=O)N[C@@H](CCCNC(=N)N)C(=O)NC(C)(C)C(=O)N[C@@H](CC(N)=O)C(=O)N1)C(C)(C)C)C(N)=O` [PSM-0573, DOTA-Thr-Aib-Pcf-[Cys-Lys-Arg-Aib-Asn-Cys]-Tle-Thr-NH2] ({DOTA}-T[Aib][Phe(4-Cl)]CKR[Aib]NC[Tle]T-NH2; disulfide 4-9), in data set [1] (FACS binding, category), the IC50 was less than 200 nM. Also, in data set [2], the “AUC ratio [T/K]” value is reported as 1.1 and the “Tumor AUC” value was 160 % ID/g*h. Also, in data set [3] (PSMA SPR assay, category), the Kd is less than 12.6 nM.
